Holding throughout (assay): Kinase panel (mobility shift)
Holding throughout (type): biochemical

One assay addresses LOK (Homo sapiens, UniProt O94804). The note with it: at 5 um. Here is the method:
(§1) The disclosed compounds were tested for activity against a panel of 299 kinases. The target enzyme was incubated with fluorescently labeled substrate and test compounds in a standardized reaction mixture in 384 well plates. Upon termination of the reaction, samples were introduced onto microfluidic chips. The samples migrated through channels in the chips and product and substrate were separated based on the difference in their charge (electrophoretic mobility shift). Enzyme activity was measured by direct comparison of the fluorescence in the product and substrate peaks. […] In the tables A=95% or greater at 5 um, B=90%-94% at 5 um, and C=80%-89% at 5 um. [note to draft: we included category D for 50-79 and category E is less than 50%. Feel free to remove if not needed)

In the next assay the target is T1, HIPK4 (Homo sapiens, UniProt Q8NE63).
T1 sequence (Q8NE63 1-616): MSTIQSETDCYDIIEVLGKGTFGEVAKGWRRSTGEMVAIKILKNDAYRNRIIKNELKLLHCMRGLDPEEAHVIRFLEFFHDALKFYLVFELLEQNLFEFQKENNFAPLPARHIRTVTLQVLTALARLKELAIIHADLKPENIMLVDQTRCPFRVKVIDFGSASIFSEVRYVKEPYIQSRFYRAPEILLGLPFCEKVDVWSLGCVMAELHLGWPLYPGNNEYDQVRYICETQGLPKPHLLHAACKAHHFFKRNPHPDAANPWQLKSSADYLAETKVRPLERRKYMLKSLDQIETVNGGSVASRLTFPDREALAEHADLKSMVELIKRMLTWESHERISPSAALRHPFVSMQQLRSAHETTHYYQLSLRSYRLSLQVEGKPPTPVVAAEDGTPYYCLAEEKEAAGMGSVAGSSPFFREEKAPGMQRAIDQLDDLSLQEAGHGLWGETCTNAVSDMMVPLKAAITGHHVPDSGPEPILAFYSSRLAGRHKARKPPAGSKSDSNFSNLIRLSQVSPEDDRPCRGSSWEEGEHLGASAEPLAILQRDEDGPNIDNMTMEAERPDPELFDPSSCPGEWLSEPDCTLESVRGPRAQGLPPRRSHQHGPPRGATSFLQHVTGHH
As to the method: as §1

A further assay addresses EPH-A4 (Homo sapiens, UniProt P54764). Here is the method:
as §1

The target of a further assay is T2, TAOK3 (Homo sapiens, UniProt Q9H2K8).
T2 sequence (Q9H2K8 1-898): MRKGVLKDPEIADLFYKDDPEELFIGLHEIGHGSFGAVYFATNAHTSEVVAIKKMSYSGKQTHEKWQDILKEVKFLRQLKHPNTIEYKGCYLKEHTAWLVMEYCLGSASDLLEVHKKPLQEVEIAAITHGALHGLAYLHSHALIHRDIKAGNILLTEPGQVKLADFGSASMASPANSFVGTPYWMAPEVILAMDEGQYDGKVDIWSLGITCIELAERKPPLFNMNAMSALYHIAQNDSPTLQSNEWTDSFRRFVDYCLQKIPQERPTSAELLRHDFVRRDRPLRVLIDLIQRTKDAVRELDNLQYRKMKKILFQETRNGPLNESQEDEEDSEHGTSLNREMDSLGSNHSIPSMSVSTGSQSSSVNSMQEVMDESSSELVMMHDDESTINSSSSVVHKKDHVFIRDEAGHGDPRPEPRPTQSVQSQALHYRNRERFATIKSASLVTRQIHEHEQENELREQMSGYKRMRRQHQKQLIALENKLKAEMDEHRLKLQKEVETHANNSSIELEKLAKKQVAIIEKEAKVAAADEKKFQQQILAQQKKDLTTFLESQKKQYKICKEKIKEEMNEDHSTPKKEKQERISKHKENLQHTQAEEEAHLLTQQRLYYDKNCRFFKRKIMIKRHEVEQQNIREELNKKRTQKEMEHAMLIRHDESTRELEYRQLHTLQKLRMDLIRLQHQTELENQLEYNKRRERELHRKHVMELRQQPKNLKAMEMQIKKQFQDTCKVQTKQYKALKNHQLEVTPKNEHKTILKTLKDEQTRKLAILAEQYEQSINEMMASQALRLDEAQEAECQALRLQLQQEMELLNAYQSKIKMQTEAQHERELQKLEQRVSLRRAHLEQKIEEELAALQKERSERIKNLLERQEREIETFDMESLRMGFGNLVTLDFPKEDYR
As to the method:
as §1

The results in this text go back to patent publication US11629143B2, “HipK4 inhibitors and uses thereof” (Vibliome Therapeutics, LLC, priority 2020, dated 2023).

SMILES strings stand for the structures.

LOK, sequence (O94804 whole entry, species assumed): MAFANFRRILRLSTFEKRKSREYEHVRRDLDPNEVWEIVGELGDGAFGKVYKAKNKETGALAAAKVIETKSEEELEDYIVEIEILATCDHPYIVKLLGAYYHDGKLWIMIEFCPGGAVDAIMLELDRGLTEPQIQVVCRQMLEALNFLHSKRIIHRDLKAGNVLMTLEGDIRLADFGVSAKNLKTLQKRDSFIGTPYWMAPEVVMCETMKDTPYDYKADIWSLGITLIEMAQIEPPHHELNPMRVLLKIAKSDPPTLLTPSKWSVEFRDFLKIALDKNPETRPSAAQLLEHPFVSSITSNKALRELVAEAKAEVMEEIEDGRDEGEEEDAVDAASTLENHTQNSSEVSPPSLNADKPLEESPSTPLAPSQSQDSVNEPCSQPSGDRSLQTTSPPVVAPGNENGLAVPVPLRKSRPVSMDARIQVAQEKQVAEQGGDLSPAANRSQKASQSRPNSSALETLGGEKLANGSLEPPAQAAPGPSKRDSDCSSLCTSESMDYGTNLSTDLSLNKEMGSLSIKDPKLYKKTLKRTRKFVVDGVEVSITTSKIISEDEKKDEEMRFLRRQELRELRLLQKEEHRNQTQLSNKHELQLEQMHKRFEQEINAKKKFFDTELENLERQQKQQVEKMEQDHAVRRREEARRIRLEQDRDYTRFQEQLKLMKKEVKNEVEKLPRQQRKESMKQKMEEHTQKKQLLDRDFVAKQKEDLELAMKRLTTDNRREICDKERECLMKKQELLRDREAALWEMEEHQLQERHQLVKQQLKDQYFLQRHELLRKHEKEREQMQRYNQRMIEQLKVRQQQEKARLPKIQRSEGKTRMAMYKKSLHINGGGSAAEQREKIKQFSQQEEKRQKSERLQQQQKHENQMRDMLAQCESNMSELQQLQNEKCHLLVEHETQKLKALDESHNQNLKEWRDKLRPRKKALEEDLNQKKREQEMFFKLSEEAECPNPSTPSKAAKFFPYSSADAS
EPH-A4, sequence (P54764 20-986, species assumed): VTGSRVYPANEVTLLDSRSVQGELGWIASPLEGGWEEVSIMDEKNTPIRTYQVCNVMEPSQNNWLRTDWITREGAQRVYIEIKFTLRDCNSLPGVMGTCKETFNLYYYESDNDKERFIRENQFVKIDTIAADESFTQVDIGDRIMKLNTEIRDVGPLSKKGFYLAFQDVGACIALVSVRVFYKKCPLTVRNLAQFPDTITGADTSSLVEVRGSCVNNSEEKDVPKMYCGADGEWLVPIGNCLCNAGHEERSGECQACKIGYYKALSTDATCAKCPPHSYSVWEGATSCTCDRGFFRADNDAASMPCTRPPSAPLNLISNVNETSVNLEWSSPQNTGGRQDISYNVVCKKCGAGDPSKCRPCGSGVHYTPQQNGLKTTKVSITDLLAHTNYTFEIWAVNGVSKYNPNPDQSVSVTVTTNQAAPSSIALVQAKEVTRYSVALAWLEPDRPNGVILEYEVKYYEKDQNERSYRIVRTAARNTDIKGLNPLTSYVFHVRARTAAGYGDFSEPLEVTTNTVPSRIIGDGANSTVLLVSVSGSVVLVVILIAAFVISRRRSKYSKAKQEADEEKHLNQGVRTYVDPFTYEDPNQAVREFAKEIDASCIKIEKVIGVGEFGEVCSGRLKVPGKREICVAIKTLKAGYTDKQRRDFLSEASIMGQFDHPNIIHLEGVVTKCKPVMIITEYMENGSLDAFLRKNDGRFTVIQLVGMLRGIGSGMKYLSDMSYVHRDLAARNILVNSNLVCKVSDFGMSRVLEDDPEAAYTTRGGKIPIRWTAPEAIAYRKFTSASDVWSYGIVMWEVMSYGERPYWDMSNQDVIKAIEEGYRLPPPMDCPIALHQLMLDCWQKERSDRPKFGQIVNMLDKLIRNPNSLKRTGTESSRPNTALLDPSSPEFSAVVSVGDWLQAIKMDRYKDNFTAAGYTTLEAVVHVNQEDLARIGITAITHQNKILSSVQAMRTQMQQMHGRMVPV

Broadly, the inhibition is how much of the control response was suppressed. In the case of `CSc1nc(C(=O)Nc2ccc(Oc3ccnc(N)c3Cl)c(F)c2)c(-c2ccc(F)cc2)o1` [Compound 1], the “inhibition of kinase activity, LOK” value at LOK was “E (category E is less than 50%)”. The inhibition at 5 µM on HIPK4 was 90 to 94%; at EPH-A4, below 50%; at TAOK3 it was below 50%.
As to `CSc1nc(C(=O)Nc2ccc(Oc3cc4cnn(C)c4cc3Br)c(F)c2)c(-c2ccc(F)cc2)o1` [Compound 2], the “inhibition of kinase activity, LOK” value at LOK is listed as “D (category D for 50-79)”. The inhibition at 5 µM on HIPK4 is at least 95%; at EPH-A4, 50 to 79%; on TAOK3 it was below 50%.
On to `CNC(=O)c1cc(Oc2ccc(NC(=O)c3nc(SC)oc3-c3ccc(F)cc3Cl)cc2)ccn1` [Compound 3], for which, on LOK, the “inhibition of kinase activity, LOK” value is “E (category E is less than 50%)”. In addition, the inhibition at 5 µM at HIPK4 is at least 95%; on EPH-A4 it was below 50%; at TAOK3, below 50%.
For the molecule `CNC(=O)c1cc(Oc2ccc(NC(=O)c3nc(SC)oc3-c3ccc(F)c(F)c3)cc2)ccn1` [Compound 4], the “inhibition of kinase activity, LOK” value on LOK was “D (category D for 50-79)”. In addition, the values for the inhibition at 5 µM at HIPK4, at EPH-A4 and at TAOK3 were at least 95%, below 50% and 50 to 79%, respectively.
For `CNC(=O)c1cc(Oc2ccc(NC(=O)c3nc(SC)oc3-c3ccc(Cl)s3)cc2)ccn1` [Compound 5] the same measures were “E (category E is less than 50%)”, 90 to 94%, below 50% and below 50%.
On to `CNC(=O)c1cc(Oc2ccc(NC(=O)c3nc(SC)oc3-c3ccc(F)cc3F)cc2)ccn1` [Compound 6], for which the “inhibition of kinase activity, LOK” value at LOK is “E (category E is less than 50%)”. Besides, the inhibition at 5 µM at HIPK4 was 90 to 94%; on EPH-A4, below 50%; at TAOK3 it was below 50%.
In the case of `CNC(=O)c1cc(Oc2ccc(NC(=O)c3nc(SC)oc3-c3ccc(OC)cc3)cc2)ccn1` [Compound 7], on LOK, the “inhibition of kinase activity, LOK” value was “C (C=80%-89% at 5 um)”. Moreover, the inhibition at 5 µM was 90 to 94% on HIPK4, below 50% at EPH-A4 and below 50% on TAOK3.
Turning to `CSc1nc(C(=O)Nc2ccc(Oc3ccnc(-c4cnn(C)c4)c3)c(F)c2)c(-c2ccc(F)cc2)o1` [Compound 11], at LOK, the “inhibition of kinase activity, LOK” value is reported as “B (B=90%-94% at 5 um)”. Also, the inhibition at 5 µM on HIPK4 is at least 95%; at EPH-A4 it was 90 to 94%; at TAOK3, below 50%.
Consider `CNC(=O)c1cc(Oc2ccc(NC(=O)c3nc(SC)oc3-c3ccc(F)cc3F)cc2F)ccn1` [Compound 12], for which the “inhibition of kinase activity, LOK” value at LOK is “D (category D for 50-79)”. Besides, the inhibition at 5 µM at HIPK4 is 90 to 94%; on EPH-A4, 50 to 79%; on TAOK3, 50 to 79%.
With `CNC(=O)c1cc(Oc2ccc(NC(=O)c3nc(S(C)(=O)=O)sc3-c3ccc(F)cc3)cc2F)ccn1` [Compound 13], on LOK, the “inhibition of kinase activity, LOK” value was “E (category E is less than 50%)”. Also, the figures for the inhibition at 5 µM on HIPK4, at EPH-A4 and on TAOK3 were at least 95%, 50 to 79% and below 50%, respectively.
The corresponding values for `CNC(=O)c1cc(Oc2ccc(NC(=O)c3nc(NC)oc3-c3ccc(F)cc3)cc2F)ccn1` [Compound 14] are “C (C=80%-89% at 5 um)”, at least 95%, 50 to 79% and 90 to 94%.
Take `CNC(=O)c1cc(Oc2ccc(NC(=O)c3nc(OC)oc3-c3ccc(F)cc3)cc2F)ccn1` [Compound 15]: the “inhibition of kinase activity, LOK” value at LOK is on record as “C (C=80%-89% at 5 um)”. Also, the inhibition at 5 µM on HIPK4 was at least 95%; at EPH-A4, 50 to 79%; at TAOK3, below 50%.
On to `CNC(=O)c1cc(Oc2ccc(NC(=O)c3nc(SC)oc3-c3ccc(F)s3)cc2F)ccn1` [Compound 16], for which the “inhibition of kinase activity, LOK” value on LOK is “D (category D for 50-79)”. Moreover, the inhibition at 5 µM at HIPK4 was at least 95%; at EPH-A4 it was below 50%; at TAOK3 it was below 50%.
Take `CNC(=O)c1cc(Oc2ccc(NC(=O)c3nc(NC)oc3-c3ccc(F)s3)cc2F)ccn1` [Compound 17]: at LOK, the “inhibition of kinase activity, LOK” value was “D (category D for 50-79)”. The inhibition at 5 µM was at least 95% on HIPK4, below 50% at EPH-A4 and below 50% at TAOK3.
For the molecule `CNC(=O)c1cc(Oc2c(F)cc(NC(=O)c3nc(NC)sc3-c3ccc(F)cc3)cc2F)ccn1` [Compound 19], the “inhibition of kinase activity, LOK” value on LOK is recorded as “D (category D for 50-79)”. Also, the inhibition at 5 µM was at least 95% at HIPK4, 50 to 79% at EPH-A4 and 50 to 79% on TAOK3.
With `CNC(=O)c1cc(Oc2ccc(NC(=O)c3nc(NC)sc3-c3ccc(F)cc3F)cc2F)ccn1` [Compound 21], on LOK, the “inhibition of kinase activity, LOK” value is “E (category E is less than 50%)”. Also, the inhibition at 5 µM at HIPK4 was at least 95%; on EPH-A4, below 50%; at TAOK3 it was 50 to 79%.
`CNC(=O)c1cc(Oc2ccc(NC(=O)c3nc(NC)sc3-c3ccc(F)cc3C)cc2F)ccn1` [Compound 23]: the “inhibition of kinase activity, LOK” value on LOK is given as “D (category D for 50-79)”. In addition, the inhibition at 5 µM lay in the range of 90 to 94% on HIPK4, 50 to 79% at EPH-A4 and 50 to 79% on TAOK3.
`CNC(=O)c1cc(Oc2ccc(NC(=O)c3nc(OC)oc3-c3ccc(F)c(F)c3)cc2F)ccn1` [Compound 24]: the “inhibition of kinase activity, LOK” value on LOK is “C (C=80%-89% at 5 um)”. The inhibition at 5 µM at HIPK4 was at least 95%; on EPH-A4, below 50%; at TAOK3, below 50%.
On to `CNC(=O)c1cc(Oc2ccc(NC(=O)c3nc(OC)oc3-c3ccc(F)s3)cc2F)ccn1` [Compound 25], for which the “inhibition of kinase activity, LOK” value at LOK is “D (category D for 50-79)”. Also, the results for the inhibition at 5 µM on HIPK4, on EPH-A4 and on TAOK3 were at least 95%, below 50% and below 50%, respectively.
Take `CNC(=O)c1cc(Oc2ccc(NC(=O)c3nc(C4CC4)oc3-c3ccc(F)cc3)cc2F)ccn1` [Compound 26]: at LOK, the “inhibition of kinase activity, LOK” value is reported as “C (C=80%-89% at 5 um)”. Also, the results for the inhibition at 5 µM on HIPK4, on EPH-A4 and on TAOK3 were at least 95%, 80 to 89% and 80 to 89%, respectively.
For `CSc1nc(C(=O)Nc2ccc(Oc3ccnc(C(=O)NC4CNC4)c3)c(F)c2)c(-c2ccc(F)s2)o1` [Compound 27], the “inhibition of kinase activity, LOK” value at LOK is on record as “E (category E is less than 50%)”. Moreover, the inhibition at 5 µM is at least 95% at HIPK4, below 50% at EPH-A4 and below 50% on TAOK3.
Consider `CSc1nc(C(=O)Nc2ccc(Oc3ccnc(C(=O)NC4COC4)c3)c(F)c2)c(-c2ccc(F)s2)o1` [Compound 28], for which the “inhibition of kinase activity, LOK” value at LOK is listed as “E (category E is less than 50%)”. In addition, the inhibition at 5 µM was at least 95% on HIPK4, below 50% on EPH-A4 and below 50% on TAOK3.
`CSc1nc(C(=O)Nc2ccc(Oc3ccnc(C(=O)NC4CNC4)c3)c(F)c2)c(-c2ccc(F)cc2)o1` [Compound 29]: the “inhibition of kinase activity, LOK” value at LOK is reported as “D (category D for 50-79)”. Further, the figures for the inhibition at 5 µM on HIPK4, at EPH-A4 and on TAOK3 were at least 95%, 50 to 79% and 50 to 79%, respectively.
